Data set [1] deals with metastatic (Stage III-IV) breast cancer. In words: Amlexanox in women with metastatic breast cancer whose primary tumors are removed surgically (Example 7). The following applies: 500 mg orally twice a day; baseline until nine months after administration and follow-up. Type of data set: in vivo, human. The protocol:
In this study, 44 women with metastatic (Stage III-IV) breast cancer whose primary tumors are removed surgically are treated by orally administering 500 mg amlexanox twice a day. The total dose, per patient, is 1,000 mg daily. Baseline assessments are performed at the start of the treatment (treated group) and these baseline results are compared with repeat assessments during various follow-up periods of this treatment. The treatment is conducted for at least ten consecutive days and it is continued further until substantial progression of the disease is noted. The study, which includes treatment of all patients and their follow-up, lasts for at least nine months or until disease progression in the last patient with responding or stable disease. […] In carrying out this study, the response rate and one year survival data for each of the patients in the treated group is determined and compared with an untreated group. […] If there is a delay of the substantial progression of the disease, then treatment is stopped when it is determined that substantial progression of the disease in that patient resumes. […] One week after the first administration of amlexanox, patients are clinically evaluated (adverse event review, concomitant medication and concurrent illness) and the following laboratory evaluations are conducted: hematology, blood chemistry and urinalysis. […]

For another data set, the system named is colorectal cancer. Description: Amlexanox in combination with irinotecan in colorectal cancer, first-line (Example 9). It counts as in vivo, human. The conditions noted are these: amlexanox tablets orally plus irinotecan 350 mg/m^2 i.v. every 3 weeks, versus irinotecan alone. The protocol: In this open label randomized multicenter study 150 patients with colorectal cancer who have tumors that cannot be completely removed by surgery are treated by administering irinotecan alone and 150 patients, with colorectal cancer who have tumors that cannot be completely removed by surgery, are treated with combination of irinotecan and 500 mg amlexanox daily with two amlexanox 250 mg tablets, prepared in Example 3, taken twice daily orally to provide a daily dose of […] of amlexanox. Irinotecan was administered to all of the patients at a dose of 350 mg/m^2 once every 3 weeks intravenously during the course of this study. […] In addition, in each of the treated patients, duration of overall response, time to overall response, duration of progression-free survival, overall clinical benefit rate, overall survival rate and quality of life are determined. […] The patients are evaluated by standard WHO and/or RECIST criteria for response and disease status at six week intervals. […] All of the patients during the evaluation period are evaluated by the measurement of the tumors, survival and determination of any progression of the disease in the patient. Stability is measured during each evaluation to determine if there is any increase in the size and amount of tumors from the proceeding period and if there is no subsequent appearance of any other malignancies in the patient. […]

Another data set has as its system CSML100 cells. Description: CSML100 (murine mammary carcinoma) experimental metastasis model (Example 24). It counts as in vivo, mouse. The conditions noted are these: 100 mg/kg/day i.v., 10 daily injections. The protocol: Amlexanox solution for injections was prepared according to the Example 4. CSML100 cells were inoculated intravenously in 26 female A/J mice (6-7 weeks old). Animals were then divided randomly into two groups: 1) untreated control (n=16, saline) and 2) Amlexanox treated (n=10, 100 mg/kg/day, i.v.; 10 daily injections). The control group received i.v. injections with 5 ml/kg (volume/body weight) of saline, while Amlexanox was administrated intravenously daily with a dose of 100 mg/kg in a volume of 5 ml/kg. Treatment was started on the day following the day of tumor cell implantation and continued for 10 consecutive days. The animal body weight was recorded as an index of treatment toxicity during the experiment. From the day 10 after cell implantation, one animal in the control group was sacrificed every day to monitor the metastasis development. All remaining animals were sacrificed on the day 18 for routine metastasis inspection. Although all organs were routinely screened, metastatic formation was only found in the lungs. The metastatic colonies on the organ surface were enumerated immediately following the removal of the organ.
A maximum body weight loss in treated group was less than 10%. The data are expressed as mean±SEM for the number of metastatic sites on the lung surface.

These results are taken from patent US7772255B2, “Method of treating tumors with azaxanthones” (Supratek Pharma, Inc., priority 2005, dated 2010).

In the case of `CC(C)c1ccc2oc3nc(N)c(C(=O)O)cc3c(=O)c2c1` [Amlexanox, 2-amino-7-isopropyl-1-azaxanthone-3-carboxylic acid], the “percentage of patients with little or no progression of the disease, compared to the non-treated group” value in data set [1] was “greater percentage of the patients in the group of patients treated with the amlexanox show little or no progression of the disease”. Also, the “percentage of patients with beneficial results (overall response rate, progression-free survival, overall survival etc.)” value in the data set with colorectal cancer is on record as “greater percentage of the patients in the group of patients treated with the amlexanox show beneficial results”. Besides, the “Average of lung metastasis number per animal (sample number)” value with CSML100 cells (CSML100 cells i.v. in female A/J mice, day 18, mean±SEM) was 18.8 ± 2.3 (9). For the same molecule, in the data set on CSML100 cells (lung metastasis number, day 18), the “Treated/control × 100%” value came out at 48.5%. In the data set on CSML100 cells (treated group, A/J mice), the “maximum body weight loss” value was “less than 10%”.
